Test results from patent US20220251084A1, “PROGRANULIN MODULATORS AND METHODS OF USING THE SAME” (ARKUDA THERAPEUTICS, priority 2019, published 2022).
Where a name gives a salt, the structure may show the parent alone.

Tested on: progranulin (PGRN) secretion, BV-2 cells
Experiment: PGRN assay: progranulin induction cellular assay (ELISA of secreted mouse PGRN)
Assay type: cell-based
Conditions: Table D, secreted mouse PGRN in cell culture medium, ELISA
Summary of the method: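 Progranulin induction measured in BV-2 cells plated at about 80% confluence the day before, given 1 h to attach, then incubated 16 h. Secreted mouse PGRN quantified by ELISA.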

| Compound | EC50 (Mus musculus, BV-2, PGRN assay) [nM] | EC50 (PGRN assay) [nM] |
| --- | --- | --- |
| O=C(O[C@@H]1CNCC1(F)F)N1CCc2ccccc2[C@@H]1c1ccc(F)cc1 [Compound 2242] | 3950 |  |
| CN1CC[C@@H](NC(=O)N2CCc3ccccc3[C@@H]2c2ccc(F)cc2)C1 [Compound 2245] | 460 |  |
| CN1CCC(OC2(C(=O)N3CCc4ccccc4[C@@H]3c3ccc(F)cc3)CC2)CC1 [Compound 2247] | > 10000 |  |
| CN1CC[C@@H](OC(=O)N2CCc3ccccc3[C@@H]2c2ccc(F)cc2)C1 [Compound 2250, (R)-1-methylpyrrolidin-3-yl (S)-1-(4-fluorophenyl)-3,4-dihydroisoquinoline-2(1H)-carboxylate hydrochloride] | 100 |  |
| CN1CC[C@H](OC(=O)N2CCc3ccccc3[C@@H]2c2ccc(F)cc2)C1 [Compound 2251] | 110 |  |
| O=C(N1CCN2CCC1CC2)N1CCc2ccccc2[C@@H]1c1ccc(F)cc1 [Compound 2252] | 120 |  |
| CN(C(=O)N1CCc2ccccc2[C@@H]1c1ccc(F)cc1)[C@@H]1CCNC1 [Compound 2253, 1-(4-fluorophenyl)-N-methyl-((R)-pyrrolin-3-yl)-3,4-dihydroisoquinoline-2(1H)-carboxamide] | 110 |  |
| CN(C(=O)N1CCc2ccccc2[C@H]1c1ccc(F)cc1)[C@H]1CCNC1 [Compound 2254] |  | 2910 |
| O=C(OC[C@]1(F)CCNC1)N1CCc2ccccc2[C@@H]1c1ccc(F)cc1 [Compound 2256] | 170 |  |
| O=C1N[C@H](CNC(=O)N2CCc3ccccc3[C@@H]2c2ccc(F)cc2)CO1 [Compound 2259, (S)-1-(4-fluorophenyl)-N—(((R)-2-oxooxazolidin-4-yl)methyl)-3,4-dihydroisoquinoline-2(1H)-carboxamide] | > 10000 |  |
| O=C(O[C@@H]1CNCCOC1)N1CCc2ccccc2[C@@H]1c1ccc(F)cc1 [Compound 2260] | 730 |  |
| O=C(O[C@H]1CNCCOC1)N1CCc2ccccc2[C@@H]1c1ccc(F)cc1 [Compound 2263] | 1280 |  |
| O=C(N1CCCNCC1)N1CCc2ccccc2[C@@H]1c1ccc(F)cc1 [Compound 2264, (S)-(1,4-diazepan-1-yl)(1-(4-fluorophenyl)-3,4-dihydroisoquinolin-2(1H)-yl)methanone] | 1060 |  |
| CN1CC[C@@H](N(C)C(=O)N2CCc3ccccc3[C@@H]2c2ccc(F)cc2)C1 [Compound 2265] | 286 |  |
| O=C(O[C@@H]1CCNC1)N1CCc2ccccc2[C@H]1c1ccc(F)cc1 [Compound 2266, (R)-pyrrolidin-3-yl (R)-1-(4-fluorophenyl)-3,4-dihydroisoquinoline-2(1H)-carboxylate] | 255 |  |
| CN1CCC(C(O)C(=O)N2CCc3ccccc3[C@@H]2c2ccc(F)cc2)C1 (stereo partly drawn) [Compound 2267, 1-((S)-1-(4-fluorophenyl)-3,4-dihydroisoquinolin-2(1H)-yl)-2-hydroxy-2-(1-methylpyrrolidin-3-yl)ethanone] | 130 |  |
| CN1CCCN(C(=O)N2CCc3ccccc3[C@@H]2c2ccc(F)cc2)CC1 [Compound 2269, (S)-(1-(4-fluorophenyl)-3,4-dihydroisoquinolin-2(1H)-yl)(4-methyl-1,4-diazepan-1-yl)methanone] | 656 |  |
| CN1CC[C@H](N(C)C(=O)N2CCc3ccccc3[C@@H]2c2ccc(F)cc2)C1 [Compound 2270, (S)-1-(4-fluorophenyl)-N-methyl-N—((S)-1-methylpyrrolidin-3-yl)-3,4-dihydroisoquinoline-2(1H)-carboxamide] | 515 |  |
| O=C(O[C@H]1CCNC1)N1CCc2ccccc2[C@H]1c1ccc(F)cc1 [Compound 2272] | 2030 |  |
| CC1(C)CNC[C@H]1NC(=O)N1CCc2ccccc2[C@@H]1c1ccc(F)cc1 [Compound 2273] | 319 |  |
| CN1CCC(C(=O)C(=O)N2CCc3ccccc3[C@@H]2c2ccc(F)cc2)C1 (stereo partly drawn) [Compound 2274, 1-((S)-1-(4-fluorophenyl)-3,4-dihydroisoquinolin-2(1H)-yl)-2-(1-methylpyrrolidin-3-yl)ethane-1,2-dione] | 1400 |  |
| CN(CC1CNC1)C(=O)N1CCc2ccccc2[C@@H]1c1ccc(F)cc1 [Compound 2283, (S)—N-(azetidin-3-ylmethyl)-1-(4-fluorophenyl)-N-methyl-3,4-dihydroisoquinoline-2(1H)-carboxamide] | > 10000 |  |
| N[C@@H]1CCN(C(=O)N2CCc3ccccc3[C@H]2c2ccc(F)cc2)C1 [Compound 2286] | 2840 |  |
| NC[C@H]1CCN(C(=O)N2CCc3ccccc3[C@@H]2c2ccc(F)cc2)C1 [Compound 2288] | 248 |  |
| CN1CC[C@@H](O)[C@H](O)[C@H]1COC(=O)N1CCc2ccccc2[C@@H]1c1ccc(F)cc1 [Compound 2289, ((2R,3R,4R)-3,4-dihydroxy-1-methylpiperidin-2-yl)methyl (S)-1-(4-fluorophenyl)-3,4-dihydroisoquinoline-2(1H)-carboxylate] | > 10000 |  |
| CC1(C)CNC[C@@H]1OC(=O)N1CCc2ccccc2[C@@H]1c1ccc(F)cc1 [Compound 2291] | 591 |  |
| CC1(C)CNC[C@H]1OC(=O)N1CCc2ccccc2[C@@H]1c1ccc(F)cc1 [Compound 2292] | 431 |  |

More lines, now with the values ahead:

| EC50 (Mus musculus, BV-2, PGRN assay) [nM] | EC50 (PGRN assay) [nM] | Compound |
| --- | --- | --- |
| 770 |  | O=C(OCC1CNC1)N1CCc2ccccc2[C@@H]1c1ccc(F)cc1 [Compound 2246, Azetidin-3-ylmethyl (S)-1-(4-fluorophenyl)-3,4-dihydroisoquinoline-2(1H)-carboxylate 2,2,2-trifluoroacetate] |
| 1240 |  | CN(C(=O)N1CCc2ccccc2[C@@H]1c1ccc(F)cc1)[C@H]1CCNC1 [Compound 2248] |
| 550 |  | O=C(NCC1CNC1)N1CCc2ccccc2[C@@H]1c1ccc(F)cc1 [Compound 2257, (S)—N-(azetidin-3-ylmethyl)-1-(4-fluorophenyl)-3,4-dihydroisoquinoline-2(1H)-carboxamide acetate] |
| 270 |  | O=C(OCC1(F)CNC1)N1CCc2ccccc2[C@@H]1c1ccc(F)cc1 [Compound 2258] |
| > 10000 |  | CN1CCN(C(=O)N2CCc3ccccc3[C@@H]2c2ccc(F)cc2)CC(F)(F)C1 [Compound 2261, (S)-(6,6-difluoro-4-methyl-1,4-diazepan-1-yl)(1-(4-fluorophenyl)-3,4-dihydroisoquinolin-2(1H)-yl)methanone hydrochloride] |
| > 10000 |  | O=C(N1CCNCC(F)(F)C1)N1CCc2ccccc2[C@@H]1c1ccc(F)cc1 [Compound 2262, (S)-(6,6-difluoro-1,4-diazepan-1-yl)(1-(4-fluorophenyl)-3,4-dihydroisoquinolin-2(1H)-yl)methanone] |
| 180 |  | CC1(C)CNC[C@@H]1NC(=O)N1CCc2ccccc2[C@@H]1c1ccc(F)cc1 [Compound 2268] |
| 428 |  | NC[C@@H]1CCN(C(=O)N2CCc3ccccc3[C@@H]2c2ccc(F)cc2)C1 [Compound 2279, ((S)-3-(aminomethyl)pyrrolidin-1-yl)((S)-1-(4-fluorophenyl)-3,4-dihydroisoquinolin-2(1H)-yl)methanone] |
| 1180 |  | O=C(N[C@H]1CNCC12CC2)N1CCc2ccccc2[C@@H]1c1ccc(F)cc1 [Compound 2280] |
| 273 |  | O=C(N[C@@H]1CNCC12CC2)N1CCc2ccccc2[C@@H]1c1ccc(F)cc1 [Compound 2281] |
| > 10000 |  | CN1CC(CNC(=O)N2CCc3ccccc3[C@@H]2c2ccc(F)cc2)C1 [Compound 2282] |
| 806 |  | N[C@H]1CCN(C(=O)N2CCc3ccccc3[C@@H]2c2ccc(F)cc2)C1 [Compound 2284] |
| 351 |  | N[C@@H]1CCN(C(=O)N2CCc3ccccc3[C@@H]2c2ccc(F)cc2)C1 [Compound 2287] |
